Type in all cases: biochemical
Test [1] deals with T1, catalase (Homo sapiens, UniProt P04040).
T1 sequence (P04040 2-527 limits assumed): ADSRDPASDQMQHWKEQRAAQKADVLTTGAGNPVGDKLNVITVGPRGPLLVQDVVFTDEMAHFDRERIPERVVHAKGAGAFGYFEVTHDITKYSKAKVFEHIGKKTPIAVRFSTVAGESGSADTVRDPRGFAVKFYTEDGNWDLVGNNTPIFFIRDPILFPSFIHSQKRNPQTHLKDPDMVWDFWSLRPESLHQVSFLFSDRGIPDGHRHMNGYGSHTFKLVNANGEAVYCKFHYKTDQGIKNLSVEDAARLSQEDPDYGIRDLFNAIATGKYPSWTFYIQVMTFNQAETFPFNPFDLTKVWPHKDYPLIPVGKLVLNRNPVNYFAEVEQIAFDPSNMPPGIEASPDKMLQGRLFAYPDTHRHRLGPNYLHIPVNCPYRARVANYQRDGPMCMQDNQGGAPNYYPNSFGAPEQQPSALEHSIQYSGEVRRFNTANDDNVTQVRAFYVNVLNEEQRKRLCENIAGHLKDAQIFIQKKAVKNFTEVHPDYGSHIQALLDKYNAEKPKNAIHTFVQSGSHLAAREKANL
In words: Catalase inhibitor screening, aqueous hydrogen peroxide samples with added catalase, dye indicator/peroxidase system, absorbance at 514 nm.

The target in test [2] is T1, catalase. Briefly: Catalase inhibitor screening, aqueous cholesterol sample 50 mg/dL with catalase, reporter system Primaquine/MBTH. As to conditions: aqueous cholesterol 50 mg/dL with catalase, inhibitor 0.5 mM. Here is the method:
(§1) The inhibitors were added along with the extra catalase, and spectrophotometric measurements at 514 nm were obtained.
(§2) The percent recovery of absorbance is defined as follows: [formula]
(§3) In the following tables, the concentrations of inhibitor substances are expressed as the final concentration in the reaction system after accounting for dilution factors.

The target in test [3] is T1, catalase. Briefly: Catalase inhibitor screening, plasma cholesterol sample with catalase, reporter system Primaquine/MBTH. Particulars: inhibitor 0.5 mM. The procedure: as §1, §2, §3

Structures are written as SMILES. Where “and” joins values, the source holds several entries; their conditions need not be identical. Equal entries are not always repeated. Structures can show the parent of a compound that is named as a salt.

In the case of `[F-].[Na+]` [Sodium fluoride], the “% Recovery (of absorbance)” value on catalase [1] is on record as 7%.
With `NO.NO.O=S(=O)(O)O` [Hydroxylamine sulfate], the “% Recovery (of absorbance)” value on catalase [2] is 96%; on catalase [3] it was 99%; at catalase [1] it was 99% and 95% and 90% and 97% and 91%.
As for `O=[N+]([O-])[O-].O=[N+]([O-])[O-].[Cu+2]` [Cupric nitrate], on catalase [1], the “% Recovery (of absorbance)” value is given as 85%.
Take `O=NO` [Sodium nitrite]: at catalase [1], the “% Recovery (of absorbance)” value was determined as 30%.
For the molecule `[Cl][Ni][Cl]` [Nickel (II) chloride], the “% Recovery (of absorbance)” value at catalase [1] is reported as 60%.
Regarding `CCO` [Ethanol], on catalase [1], the “% Recovery (of absorbance)” value was determined as 6%.
For the molecule `Oc1cccc(O)c1` [Resorcinol], the “% Recovery (of absorbance)” value at catalase [1] (peroxide with catalase, inhibitor concentration 0.5 mM) was determined as 50%; on catalase [1] (peroxide with catalase, inhibitor concentration 5 mM), 57%; at catalase [1] (peroxide with catalase, inhibitor concentration 40 mM), 79%.
`CO` [Methanol]: the “% Recovery (of absorbance)” value on catalase [1] worked out at 7%.
Regarding `Cl.NO` [Hydroxylamine HCl], the “% Recovery (of absorbance)” value on catalase [2] was 98%; on catalase [3], 98%; on catalase [1] (HCl), 96% and 95% and 91% and 92%.
With `[N-]=[N+]=[N-]` [Sodium azide], the “effectiveness as inhibitor of catalase activity (in words)” value at catalase [1] is on record as “most effective inhibitors of catalase activity”.
Consider `O=CO` [Sodium formate], for which, at catalase [1], the “% Recovery (of absorbance)” value came to 8%.

For the origin of these results see patent US5610025A, “Inhibition of interfering endogenous enzyme activity in assays of biological fluids” (Actimed Laboratories, Inc., priority 1993, dated 1997).
